Assays:
[1] = biological target: T1, Gag-Pol polyprotein (Human immunodeficiency virus type 1 group M subtype B (isolate HXB2), UniProt P04585); test: ST Inhibitory Assay
Method: Insertion of two newly processed 3'-viral DNA ends into the host-cell chromosome. All biological assays were performed essentially as previously described [Dayam et al., J. Med. Chem., 51:1136-1144].

[2] = biological target: T1, Gag-Pol polyprotein; test: 3'-P Inhibitory Assay
Method: Cleavage of a dinucleotide from each 3'-end of viral cDNA. All biological assays were performed essentially as previously described [Dayam et al., J. Med. Chem., 51:1136-1144].

Structure (SMILES) | IC50 [1] [µM] | IC50 [2] [µM]
CC(=O)Oc1cc(C(=O)Nc2ccc(S(=O)(=O)Nc3cccc(Cl)c3F)cc2)cc(OC(C)=O)c1OC(C)=O [N-(4-(3-chloro-2-fluorophenylsulfamoyl)phenyl)-3,4,5-triacetoxybenzamide (8l)] | 2 | 5
O=C(Nc1ccc(S(=O)(=O)Nc2cccc(Cl)c2F)cc1)c1cc(O)c(O)c(O)c1 [N-(4-(3-chloro-2-fluorophenylsulfamoyl)phenyl)galloylamide (9l)] | 0.8 | 1.3
O=C(Nc1ccc(S(=O)(=O)Nc2ccc(Br)cc2)cc1)c1cc(O)c(O)c(O)c1 [N-(4-(4-Bromophenylsulfamoyl)phenyl)galloylamide (9e)] | 0.7 | 3
CCCCc1ccc(NS(=O)(=O)c2ccc(NC(=O)c3cc(O)c(O)c(O)c3)cc2)cc1 [N-(4-(4-Butylphenylsulfamoyl)phenyl)galloylamide (9i)] | 2.5 | 3
O=C(Nc1ccc(S(=O)(=O)NCc2ccc(Cl)cc2)cc1)c1cc(O)c(O)c(O)c1 [N-(4-(4-Chlorobenzylsulfamoyl)phenyl)galloylamide (9o)] | 2 | 5
O=C(Nc1ccc(S(=O)(=O)Nc2ccc(Cl)cc2)cc1)c1cc(O)c(O)c(O)c1 [N-(4-(4-Chlorophenylsulfamoyl)phenyl)galloylamide (9n)] | 2 | 6
CCOc1ccc(NS(=O)(=O)c2ccc(NC(=O)c3cc(O)c(O)c(O)c3)cc2)cc1 [N-(4-(4-Ethoxylphenylsulfamoyl)phenyl)galloylamide (9j)] | 1.3 | 6
O=C(Nc1ccc(S(=O)(=O)NCc2ccc(F)cc2)cc1)c1cc(O)c(O)c(O)c1 [N-(4-(4-Fluorobenzylsulfamoyl)phenyl)galloylamide (9d)] | 2 | 7
O=C(Nc1ccc(S(=O)(=O)Nc2ccc(F)cc2)cc1)c1cc(O)c(O)c(O)c1 [N-(4-(4-Fluorophenylsulfamoyl)phenyl)galloylamide (9a)] | 0.9 | 7
COc1ccc(NS(=O)(=O)c2ccc(NC(=O)c3cc(O)c(O)c(O)c3)cc2)cc1 [N-(4-(4-Methoxylphenylsulfamoyl)phenyl)galloylamide (9q)] | 4.5 | 5
O=C(Nc1ccc(S(=O)(=O)Nc2ccc([N+](=O)[O-])cc2)cc1)c1cc(O)c(O)c(O)c1 [N-(4-(4-Nitrophenylsulfamoyl)phenyl)galloylamide (9r)] | 3 | 4
CC(=O)Oc1cc(C(=O)Nc2ccc(S(=O)(=O)Nc3ccccc3)cc2)cc(OC(C)=O)c1OC(C)=O [N-(4-Phenylsulfamoylphenyl)-3,4,5-triacetoxybenzamide (8m)] | 1.6 | 8
O=C(Nc1ccc(S(=O)(=O)Nc2ccccc2)cc1)c1cc(O)c(O)c(O)c1 [N-(4-Phenylsulfamoylphenyl)galloylamide (9m)] | 1.5 | 7
O=C(Nc1ccc(S(=O)(=O)Nc2ccccc2)cc1)c1ccc(O)c(O)c1 [N-(4-phenylsulfamoylphenyl)3,4-dihydroxybenzamidebenzamide (11w)] | 50 | 100

— BindingDB's records for doi:10.3109/14756366.2011.604851 (Shandong University, 2012)
